Laboratory results taken from patent US6602852B1, “Basic peptides and pharmaceutical compositions containing same” (NST NeuroSurvival Technologies, Ltd., priority 1998, dated 2003).

Tests used:
[1] = system: HeLa cells undergoing dopamine-induced apoptosis; conditions: 750 nM
Description: HeLa cells were plated on tissue culture plates at a density of 3×10^6 cells/10 cm dish, and grown in a DMEM medium containing 10% FCS, as described in A. The cells were then incubated at 37° C. overnight, and then the medium was replaced with a medium containing 2% FCS and 500 μM of dopamine. 18 hours later, the medium was aspirated and discarded, and 10 ml of Phosphate Buffered Saline pH 7.4 (PBS) were added to the culture dish. The cells which were detached from the culture dish into the PBS were collected. These cells represent advanced apoptotic cells. The remaining cells which were attached to the culture dish were trypsinized by the addition of 2 ml of trypsin for 2 minutes at 37° C., followed by the addition of 10 ml of a medium containing 10% of FCS. The cells were then washed with PBS containing 2% Bovine Serum Albumin (BSA), and resuspended in TBS containing 2% BSA (TBS-BSA). These cells were regarded as early apoptotic cells. […] Only non-treated cells that were attached to the culture dish were used as control cells for the FACS analysis.
A set of 3 different cell types was taken:
The incubation with the NST300 compounds or control compound was performed in a final volume of 100 μl TBS-BSA, 5 μg/ml of propidium iodide (PI) and 750 nM of the tested compound or the control compound.
PI is a red fluorescent dye that stains DNA. […] Only cells that are in advanced apoptotic stages, or cells that have already died by apoptosis or necrosis will be permeable to PI and will be stained with the dye. […] The cells were then washed in 500 μl of cold TBS-BSA and centrifugated as before. The cells were then suspended in 100 μl of TBS-BSA containing streptavidin conjugated to fluorescein (FITC). […] Thereafter, the cells were washed three times in TBS-BSA and were taken for FACS analysis.
The FACS analysis was performed on a Beckton-Dickinson cell sorter, using lysis II software. Excitation was at 488 nm and the emission or FITC detection was at 535 nm and for PI detection at 585 nm.

[2] = system: thrombin generation on apoptotic HeLa cells
Description: One of the final steps of both intrinsic and extrinsic pathways of coagulation, is the generation of thrombin from prothrombin. Thrombin is the final protease generated in the sequence of coagulation reaction, and its activity entails conversion of fibrinogen to fibrin, that forms the clot. Generation of thrombin on the pro-coagulant surface of apoptotic cells was assayed (according to Bombeli T. et al., 1997, Blood 89(7), 2429-2442), by determining its activity, using the chromogenic substrate S-2366 (from Chromogenix, Sweden). Samples of pro-coagulant cells (HeLa cells treated with 500 μM of DA for 18 hours) were used for the assay.

[3] = system: clotting induced by negatively charged phospholipids in normal plasma; conditions: 0.5-50 μM; control clotting time 40 seconds
Description: The ability of NST300 compounds to inhibit coagulaton catalyzed by negatively—charged phospholipids was evaluated in a standard coagulation test of the Russell viper venom (RVV) assay. The RVV reagent directly activates factor x present in the plasma, thus promoting prothrombinase complex formation. This reagent is widely used as a standard phospholipid responsive clotting test. (Thiagarajan et al., Blood, 1986; 869-874).
The RVV reagent kit, containing RVV and negatively charged phospholipids, from Gradipore, Australia was used. The reactions were started by mixing 100 μl of RVV reagent, and 100 μl of quality control plasma collected from normal individuals (commercially available from Instrumentation Laboratory, Italy). Clotting time was determined as the time-point beyond which the continuously mixed reaction ingredients in the test tube, could no longer be aspirated with a pasteur pipette. Clotting time was measured independently by two separate researchers.

[4] = system: Cardiolipin (CL) / anti β2GPI
Description: Antiphospholipid antibodies (APLA) comprise a family of antibodies characterized by their reactivity with negatively charged phospholipids in vitro. The target or many anti-phospholipid antibodies is either a complex between anionic phospholipid and the plasma protein Apolipoprotein-H (β2GPI) or the protein β2GPI alone bound to PS (McNeil et al., 1990, Matsurra et al., 1994). […] The assay was performed as essentially described above for anti CL ELISA with several modifications. […] Following washes, the wells were incubated for 1 hour with 1/10000 of Peroxidase-conjugated affinity purified rabbit anti goat IgG (Jackson Immunoresearch lab. PA) in PBS/BSA buffer. Washes and development were as described for anti CL ELISA. In the following experiments, CL coated wells were incubated with 1/500 dilution or affinity purified goat anti-human β2GPI in 10% normal plasma (as a source for β2GPI protein and buffering condition).

HUVEC cells = system: HUVEC cells
Description: (§1) Anti β2GPI antibodies are present in sera of APS patients. […] For cell-ELISA tests, HUVEC cells or BeWo cells (both at 40,000/well), were plated on 96 well tissue culture plates (Nunc) in 200 ul of the culture medium, and allowed to grow for 18-22 hours. Following 2 washes with Hepes buffer (10 mM Hepes pH, 8, 140 mM NaCl) and 5 min incubation with the culture medium, the wells were incubated for 3 hr with 10% of normal plasma in PBS (as a source of β2GPI protein), supplemented with 1/500 of goat anti-human Apolipoprotein-H (β2GPI) (Affinity Biologicals, Pa.) Parallel control wells were incubated with 10% of normal plasma from Ilex. Serial dilutions of NST compounds were prepared in plasma/PBS. Washes and development were as described for anti CL ELISA.

BeWo cells = system: BeWo cells
Description: as §1

For “Myristate-KKKKKRFSFKKSFKLSGFSFKKNKKK (SEQUENCE ID NO. 2)-(biotin) [NST302]”, the “binding intensity (FITC mean value) compared with NST301” value ([1]; apoptotic cells) was “higher binding intensity”, the “binding intensity: ratio of FITC mean value of apoptotic cells to that of control cells” value ([1]; early apoptotic cells, FIG. 3b) was 9 fold and the “delay factor of time needed to achieve 50% of thrombin activity” value ([2]; 25 μM) was 2.25. For the same substance, the “time needed to achieve 50% of thrombin activity” value ([2]; 25 μM) was 4.5 min, the “rate of thrombin activity and lag time for activating the reaction” value ([2]; 5-25 μM) was “delayed” and the “concentration at which inhibition of thrombin generation is observed already” value ([2]; 5-25 μM tested) was 5 µM. The “increase of clotting time by a factor as compared to control” value [3] was 3.1, the “concentration of complete inhibition of anti β2GPI binding to CL” value ([4]; 10% normal plasma) was 50 µM and the “concentrations giving significant displacement of anti β2GPI from CL” value ([4]; 10% normal plasma) was 0.1 to 50 µM. The “inhibition of anti β2GPI binding to CL” value ([4]; FIG. 6c) was “Complete inhibition”, the “concentration of maximum effect of displacement of anti β2GPI” value (HUVEC cells) was 50 µM and the “blocking of binding to pro-coagulant surface of cells” value (HUVEC cells; FIG. 6d) was “dramatic and significant ability to block binding”. The “concentration of maximum effect of displacement of anti β2GPI” value (BeWo cells) was 50 µM and the “blocking of binding to pro-coagulant surface of cells” value (BeWo cells; FIG. 6e) was “dramatic and significant ability to block binding”.
